Results published in article PMC12858467, “In vitro toxicokinetics and metabolic profiling of methoxycathinones and methylthiocathinones using human liver systems and hyphenated mass spectrometry” (Archives of Toxicology, 2025).
Like-named read-outs stand apart in the source and are kept apart here.

Tests used:
[1] = In vitro plasma protein binding (ultrafiltration, Centrifree); assay type: in vitro ADME; conditions: human, pooled human blood plasma, 30 min, 37 °C, ultrafiltration
Protocol: (§1) PPB was investigated according to a previous study with minor modifications (Kroesen et al. [2025]). Fresh and pooled human blood plasma (450 µL) was spiked with 50 µL of a 5 µM methanolic solution of 4MeO-NE-BP, 4MeO-αP-BP, 4MeO-αP-VP, 4MeS-NE-BP, 4MeS-αP-BP, or 4MeS-αMor-PrP. The mixture was incubated for 30 min at 37 °C and with gentle shaking at 200 rpm. […] The Centrifree devices were centrifuged for 35 min at 1600 × g to obtain 100 µL of the ultrafiltrate (UF). […] Experiments were performed in quadruplicate. Fraction unbound (fu) and PPB were determined by comparing the area ratios of the compound and trimipramine-d3 as an internal standard in the UF and GA using the following equations:1 fu=peak area ratiocompoundUF/ISUF/peak area ratiocompoundGA/ISGA 2 PPB[\%]=1-fu∗100.

[2] = test system: plasma proteins (pooled human blood plasma); assay: as above; assay type: in vitro ADME; conditions: for PPB, %: 30 min, 37 °C, ultrafiltration
Protocol: as §1

[3] = test system: pooled human liver S9 fraction (pHLS9) and HepaRG cells; assay: In vitro metabolism by pHLS9 and HepaRG cells (LC-HRMS/MS metabolite identification); assay type: in vitro ADME; conditions: 25 µM substrate
[4] = test system: dopamine and serotonin transporters; parameters: method as in Wojcieszak et al. [2021]; conditions: ref Wojcieszak et al. [2021]; cited from earlier work
[5] = read-out: fu (unbound fraction)

| Compound | fraction unbound at 30 min, 0.5 µM ([1]; read-out: PPB, % (converted)) | fraction unbound at 30 min, 0.5 µM [1, 5] | Plasma protein binding, class in words [2] | PPB, % [2] | metabolic reactions (metabolite IDs) identified [3] | number of metabolites tentatively identified [3] | Phase II metabolism [3] | monoamine uptake inhibition, relative potency at transporters [4] |
| --- | --- | --- | --- | --- | --- | --- | --- | --- |
| CCNC(CC)C(=O)c1ccc(OC)cc1 (stereo not shown) [Compound 4MeO-NE-BP, 4’-methoxy-N-ethylbutyrophenone] | > 0.5 | 0.61 | low | 39% | O-demethylation (MO1.1), hydroxylation (MO1.2), N-dealkylation (MO1.3), hydroxylamine formation (MO1.4), and O-demethylation + sulfation (MO1.5) | 5 | – | – |
| CCC(C(=O)c1ccc(OC)cc1)N1CCCC1 (stereo not drawn) [Compound 4MeO-αP-BP, 4’-methoxy-α-pyrrolidinobutyrophenone] | > 0.5 | 0.54 | low | 46% | hydroxylation (MO2.1), O-demethylation (MO2.2), N-oxidation (MO2.3), lactam formation (MO2.4), and hydroxylation + N-oxidation (MO2.5) | 5 | – | – |
| CCCC(C(=O)c1ccc(OC)cc1)N1CCCC1 (stereo not drawn) [Compound 4MeO-αP-VP, 4’-methoxy-α-pyrrolidinovalerophenone] | – | 0.39 | moderate | 61% | hydroxylation (MO3.1, MO3.3), O-demethylation (MO3.2), N-oxidation (MO3.4), lactam formation (MO3.5), O-demethylation + aromatic hydroxylation (MO3.6), hydroxylation + N-oxidation (MO3.7), and O-demethylation + dihydroxylation at the pyrrolidine ring (MO3.8) | 10 | O-sulfation (MO3.9) and O-glucuronidation (MO3.10) after O-demethylation | greater potency in dopamine than serotonin transporters |
